Data as given in article PMC12271471, “Direct synthesis of mycophenolic acid aryl esters with antioxidant and antiproliferative properties” (Scientific Reports, 2025).

Tested on: AsPC-1 cells (human pancreatic cancer cells)
Assay: MTT cytotoxicity assay on AsPC-1 cell line
Assay type: cell-based
Conditions: ASPC1, 72 h treatment, n = 3, mean ± SD
Protocol: Table 2 presents the concentration of the tested compounds, namely: P4, P7, MP9, MPA, MMF, and gemcitabine (GEM; a standard), which inhibited the proliferation of AsPC-1 cells (human pancreatic cancer cells) by 50% (expressed as IC50 values) compared to the control. Cells were treated with compounds for 72 h and then a colorimetric MTT assay was performed. A graphical representation of these values can be seen in ESI Fig. S1.
Biological evaluation — AsPC-1 cell line
AsPC-1 pancreatic cancer cells (purchased from the American Type Culture Collection, ATCC, Manassas, VA, USA) were maintained in RPMI 1640 medium (Sigma-Aldrich, St Louis, MO, USA), supplemented with heat-inactivated 10% fetal bovine serum (FBS; Biowest, Riverside, MO, USA), 100 µg/mL streptomycin, and 100 units/mL penicillin. Cells were incubated in a humidified atmosphere of 5% CO2 at 37°C. All experiments were performed on cells in a logarithmic growth phase.
To investigate the effect of the tested compounds on cell viability, a colorimetric analysis was performed using MTT (3-(4,5-Dimethyl-2-thiazolyl)-2,5-diphenyl-2H-tetrazolium bromide, Sigma-Aldrich, St Louis, MO, USA) based on the reduction of this yellow salt in metabolically active cells to purple formazan crystals. Cells were seeded onto 96-well plates at 2∙10^3 cells/well and after 24 h incubation for cell attachment, cells were treated with various concentrations of tested compounds and gemcitabine (positive control) up to 50 µM. After 72 hours of incubation, 20 µL MTT at a concentration of 4 mg/mL was added to each well for 3-4 hours. The culture medium was then aspirated and formazan crystals were dissolved in DMSO. The absorbance of the solutions was measured at 540 nm using an iMark Microplate Absorbance Reader (Bio-Rad, Hercules, CA, USA). The drug concentrations required to inhibit cell growth by 50% (IC50) compared to untreated control cells were determined from curves plotting survival as a function of dose. Results were obtained from at least three independent […]
Statistical analysis of MTT cytotoxicity assay results was performed using GraphPad Prism 5.0 by two-tailed unpaired Student’s t-test. Differences p < 0.05 between MPA and its derivatives and gemcitabine were considered statistically significant according to the following criteria: * p < 0.05, ** p <

| Structure (SMILES) | IC50 |
| --- | --- |
| COc1c(C)c2c(c(O)c1C/C=C(\C)CCC(=O)OCCN1CCOCC1)C(=O)OC2 [MMF, mycophenolate mofetil, reference compound] | 2.03 ± 0.042 µM |
| C/C=C/c1ccc(OC(=O)CC/C(C)=C/Cc2c(O)c3c(c(C)c2OC)COC3=O)c(OC)c1 [MP9] | 3.81 µM |
| COc1c(C)c2c(c(O)c1C/C=C(\C)CCC(=O)O)C(=O)OC2 [MPA, Mycophenolic acid] | 1.74 ± 0.259 µM |
| COC(=O)/C=C/c1ccccc1OC(=O)CC/C(C)=C/Cc1c(O)c2c(c(C)c1OC)COC2=O [P4] | 2.87 µM |
| COc1c(C)c2c(c(O)c1C/C=C(\C)CCC(=O)Oc1ccc(CCC(C)=O)cc1)C(=O)OC2 [P7] | 2.45 µM |
